{"source": "patent US10898476B2", "about": "“Heat shock proteins and cholesterol homeostasis” (Orphazyme A/S, priority 2016, dated 2021)", "key": {"[1]": {"system": "acid sphingomyelinase (ASMase)", "conditions": "via binding to bismonoacylglycerophosphate (BMP); Mahalka et al, 2014; cited from earlier work"}, "ABCA1 [2]": {"system": "ABCA1", "assay": "ABCA1 mRNA levels by qRT-PCR in macrophage foam cells", "assay_type": "cell-based, human", "conditions": "during cholesterol loading and efflux; normalized to 18S mRNA; FIG. 2a", "protocol": "(§1) FIG. 2 Effect of rHsp70 on ABCA1 transcript and protein levels in primary human macrophage foam cells. Macrophages were loaded with acLDL followed by cholesterol efflux to complete medium in the absence or presence of rHSP70. (a) The ABCA1 mRNA levels were measured by qRT-PCR. Data are mean±SEM, n=6 blood donors with triplicate measurements. (b) Cells were harvested and equal amounts of protein separated by SDS-PAGE and analyzed by Western blotting using a polyclonal anti-ABCA1 antibody. ProAct staining was used as a loading control. Data are mean±SEM, n=7 blood donors.\n(§2) Cells were collected in PBS and centrifuged at 2000 rpm for 10 min at 4° C. Cell pellets were lysed in either RNA lysis buffer or in RIPA buffer containing protease inhibitors for transcript or protein analysis.\nTotal RNA was isolated using NucleoSpin RNA isolation kit (Macherey-Nagel). 1.5 μg of total RNA was transcribed using SuperScript VILO cDNA synthesis kit (Invitrogen). abca1 primers Fwd 5′-[…], Rev 5′-[…] (Sigma) and 18S primers Fwd 5′-[…], Rev 5′-CCCCGCGAGCACAGA (Sigma) were used for qRT-PCR with Light Cycler 480 SYBER Green I Master Mix (Roche). Reaction mixtures were prepared according to the manufacturer's instructions. Reaction steps: 95° C. 15 min and 40 cycles of 95° C. 15 sec, 60° C. 30 sec and 72° C. 10 sec. […] Relative quantities of mRNAs were normalized to 18S mRNA."}, "[3]": {"system": "LXR targets (ABCA1, GRAMD1A, FABP4)", "assay": "Western blotting of LXR targets in macrophage foam cells", "assay_type": "cell-based, human", "conditions": "during cholesterol efflux; FIG. 6", "excerpt": "FIG. 6 The effect of rHSP70 on protein levels of selected LXR targets in primary human macrophage foam cells. Cells (as described for FIG. 5) were harvested and equal amounts of protein separated by SDS-PAGE and analyzed by Western blotting. Data are mean±SEM, n=7 blood donors. *: p<0.05; **: p<0.01. (a) ABCA1, (b) GRAMD1A, (c) FABP4.\n(§3) Effect of rHsp70 on the transcript and protein levels of LXR targets in primary human macrophage foam cellsMacrophage foam cells from 4 individual blood donors were incubated −/+rHSP70 during cholesterol efflux and RNAs were extracted. RNA sequencing was performed by Illumina NextSeq sequencer. RNASeq results were analysed using “Gene Set Enrichment Analysis”."}, "[4]": {"system": "primary murine bone marrow macrophage foam cells", "assay": "BODIPY-cholesterol efflux to 6% HDL enriched serum, confocal imaging", "assay_type": "cell-based", "conditions": "24 h efflux to 6% HDL enriched serum; FIG. 4", "protocol": "FIG. 4 rHSP70 speeds up BODIPY-cholesterol efflux from primary murine macrophage foam cells. Primary murine bone marrow macrophage foam cells were incubated with BODIPYcholesteryl linoleate-LDL particles. Cholesterol efflux was performed for 24 h to 6% HDL enriched serum in the presence or absence of rHSP70. Images were taken using Leica SP8 scanning confocal microscope at the indicated time points. (a) Total cell BODIPY-cholesterol intensity changes were calculated using ImageJ and data normalized to 0 h. (b) Representative images of BODIPY-cholesterol intensity changes over time. n=60-100 cells/condition. *: p<0.05.\nrHSP70 speeds up BODIPY-cholesterol efflux from primarymurine macrophage foam cells. Primary murine bone marrow macrophage foam cells were incubated with BODIPYcholesteryl linoleate-LDL particles. Cholesterol efflux was performed for 24 h to 6% HDL enriched serum in the presence or absence of rHSP70."}, "[5]": {"system": "primary human macrophage foam cells", "assay": "Cholesterol efflux from acLDL-loaded macrophage foam cells to complete medium, lipids by TLC", "assay_type": "cell-based", "protocol": "FIG. 1 rHSP70 stimulates the removal of cholesterol from primary human macrophage foam cells. Differentiated human macrophages were loaded with acLDL (50 μg/mL) for 3 days. Cholesterol efflux was performed for 12 h to complete medium in the presence or absence of rHSP70 (20 ug/ml). Lipids were analyzed by TLC. Pooled data from 8 blood donors from 8 independent experiments and three technical replicates, mean±SEM.\nFIG. 3 The effect of rHsp70 dose and BMP binding on cholesterol efflux from primary human macrophage foam cells. Macrophages were loaded with acLDL followed by cholesterol efflux to complete medium in the absence or presence of rHSP70 as in FIG. 1. Either wild-type or W90F mutant (mut) rHsp70 was employed at the final concentrations of 20 or 200 μg/mL Pooled data from 2 individual donors with 3 technical replicates, mean±SEM.\nHuman primary white blood cells, isolated from healthy blood donors were acquired form the Finnish Red Cross (permit number 21/2015). Peripheral blood mononuclear cells (PBMCs) were isolated by Ficoll layering (Boyum, A., 1964) with Ficoll-Paque Premium (GE Healthcare). […]\nCells were harvested in 2% NaCl solution and lipids were extracted as described in Bligh and Dyer (1959). […] The TLC plate was charred and free cholesterol and cholesterol ester bands were quantitated using ImageJ. […]"}, "[6]": {"system": "LXR targets such as ABCA1, FABP4 and GRAMD1A", "assay": "RNA sequencing of LXR targets in macrophage foam cells", "assay_type": "cell-based, human", "conditions": "during cholesterol efflux; 4 blood donors; FIG. 5", "protocol": "FIG. 5 The effect of rHSP70 on transcript levels of selected LXR targets in primary human macrophage foam cells. Macrophage foam cells from 4 individual blood donors were incubated −/+rHSP70 during cholesterol efflux and RNAs were extracted. RNA sequencing was performed by Illumina NextSeq sequencer. RNASeq results were analysed using “Gene Set Enrichment Analysis”. Selected LXR pathway targets modulated by rHSP70 administration were plotted against their transcript count numbers. Front row: FABP4; middle row: GRAMD1A; back row: ABCA1.\nas §3"}, "ABCA1 [7]": {"system": "ABCA1", "assay": "ABCA1 protein levels by Western blotting in macrophage foam cells", "assay_type": "cell-based, human", "conditions": "during cholesterol loading and efflux; FIG. 2b", "protocol": "as §1, §2\nProtein lysates were cleared by centrifugation at 12000 rpm for 10 min at 4° C. Protein concentration was determined using the Bio-Rad protein assay kit. Equal amount of total protein was loaded on 8% SDS-polyacrylamide gel and Western blotting was performed using polyclonal anti-ABCA1 antibody (1:500, Novus Biologicals). The primary antibody was detected with anti-rabbit secondary antibody (1:2000, Sigma). The blots were developed using the Enhanced Chemiluminiscense kit (Amersham). Protein bands were normalized to Proact membrane stain (Amresco). Quantitation of protein bands was performed using ImageJ program."}}, "data": [{"substance": "rHSP70: His-tagged recombinant wildtype Hsp70 supplied by Orphazyme ApS, Denmark", "values": [{"measurement": "activity of acid sphingomyelinase (ASMase)", "setting": "[1]", "value": "stabilize and enhance"}, {"measurement": "ABCA1 transcript level", "setting": "ABCA1 [2]", "value": "significant increase"}, {"measurement": "protein levels of LXR targets", "setting": "[3]", "value": "These changes can also be seen at the protein level"}, {"measurement": "BODIPY-cholesterol efflux", "setting": "[4]", "value": "speeds up"}, {"measurement": "cholesterol removal (efflux) from foam cells", "setting": "[5]; 20 ug/ml, 16 h pretreatment during loading, then 12 h efflux to complete medium (RPMI, 10% FBS), FIG. 1, FIG. 3", "value": "significantly enhanced"}, {"measurement": "whether a higher dosage improves the cholesterol efflux promoting effect", "setting": "[5]; 200 ug/ml compared with 20 ug/ml, before and during 12 h efflux, FIG. 3", "value": "found not to be the case"}, {"measurement": "transcript levels of LXR targets", "setting": "[6]", "value": "major transcriptional re-programming"}, {"measurement": "ABCA1 protein level", "setting": "ABCA1 [7]", "value": "significant increase"}]}]}
